Results reported in patent US20250092093A1, “Androgen receptor protein degradation-inducing peptides for prostate cancer treatment” (priority 2023, published 2025).
Numbering of substitutions follows the chain as printed. Values belong to the compound of their own block, whether it stands above or below them. Ends that are not written are not given here. * marks the point of attachment. Myristoyl = CCCCCCCCCCCCCC(=O)*

Legend:
AR protein [1] = biological target: T1, AR protein (Homo sapiens, UniProt P10275); settings: reported in the literature [3]; cited from earlier work
T1 sequence (P10275 1-920): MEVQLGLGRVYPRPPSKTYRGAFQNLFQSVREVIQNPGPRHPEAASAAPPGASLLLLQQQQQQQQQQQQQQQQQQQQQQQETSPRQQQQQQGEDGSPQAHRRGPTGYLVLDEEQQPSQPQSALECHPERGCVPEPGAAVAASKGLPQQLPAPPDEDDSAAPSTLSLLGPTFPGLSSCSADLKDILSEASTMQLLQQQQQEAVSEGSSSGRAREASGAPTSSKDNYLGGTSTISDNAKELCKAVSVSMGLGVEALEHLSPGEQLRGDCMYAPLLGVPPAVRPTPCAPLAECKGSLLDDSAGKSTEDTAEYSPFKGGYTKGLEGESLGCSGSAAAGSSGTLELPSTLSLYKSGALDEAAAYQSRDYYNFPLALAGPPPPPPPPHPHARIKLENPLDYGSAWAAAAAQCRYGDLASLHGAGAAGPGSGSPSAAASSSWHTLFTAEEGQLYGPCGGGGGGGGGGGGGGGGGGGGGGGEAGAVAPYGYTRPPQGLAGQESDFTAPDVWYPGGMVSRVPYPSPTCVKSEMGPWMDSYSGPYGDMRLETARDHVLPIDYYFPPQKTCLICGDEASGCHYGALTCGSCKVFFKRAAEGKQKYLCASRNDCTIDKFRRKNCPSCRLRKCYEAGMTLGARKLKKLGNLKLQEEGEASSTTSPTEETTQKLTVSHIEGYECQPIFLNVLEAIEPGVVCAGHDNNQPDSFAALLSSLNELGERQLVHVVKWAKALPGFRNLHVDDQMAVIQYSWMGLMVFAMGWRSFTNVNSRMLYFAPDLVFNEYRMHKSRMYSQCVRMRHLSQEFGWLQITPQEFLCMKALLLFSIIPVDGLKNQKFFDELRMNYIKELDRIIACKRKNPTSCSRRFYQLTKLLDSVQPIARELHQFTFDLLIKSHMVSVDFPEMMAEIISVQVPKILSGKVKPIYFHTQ

AR protein [2] = biological target: T2, AR protein (Homo sapiens, UniProt P10275, T878A); test: AR protein level by western blot in C4-2B cells; format: cell-based; settings: 10 micro-M
T2 construct: C4-2B cells were treated with peptides (10 micro-M) for 24 h as indicated, and AR protein levels were assessed by western blots; endogenous in cells; host or cells: C4-2B
T2 sequence (P10275 1-920 T878A): T1 sequence (P10275 1-920) with T878A
Description: (§1) A. C4-2B cells were treated with peptides (10 micro-M) for 24 h as indicated, and AR protein levels were assessed by western blots. B. C4-2B cells were treated with peptides and harvested for western blot assay with an anti-PARP antibody. Actin blot served as a protein loading control. C. Flow cytometry analysis of subG1/GO cell cycle population in C4-2B cells after peptide treatment (10 micro-M) in 2% charcoal-stripped FBS for 24 h. Data represents two experiments. The asterisk indicates a significant difference compared to the DSMO control (p<0.05, Student t-test).
A. Peptide analogs were synthesized as listed in the top panel. The myristylation sequence was conjugated to the N-terminal of the peptide for penetrating the plasma membrane. B. Prostate cancer C4-2B cells were treated with the agents at a concentration of 10 micro-M for 48 h. Cells were harvested for western blot assay with AR antibody (clone PG21). The Actin blot served as a protein loading control. […]
We further characterized the ARi14 peptide for its core sequence of action. The ARi14 peptide was chopped into two fragments, the 7-mer ARi7 peptide (EAAAYQS) and 8-mer ARi8 peptide ([…]), and their AR degradation inducing ability was compared to the original 14-mer peptide (FIG. 3). These peptides were synthesized with an N-terminal myristylation signal to facilitate cellular uptake. […]

AR protein [3] = biological target: T1, AR protein; test: AR protein level by western blot in LAPC-4 cells; format: cell-based; settings: 10 micro-M, 24 h, 2% charcoal-stripped FBS
Description: (§2) A. ARi14 peptide was fused with the KDM4A CPP sequence via a short link (KDM4A-ARi14). This fused peptide was labeled with FITC fluorescent dye. B. LAPC-4 cells were treated with the solvent, or the peptides as indicated at 10 micro-M in 2% charcoal-striped FBS-supplied media for 24 h. Cellular proteins were subjected to a western blot with an anti-AR antibody (clone PG21). Actin blot served as a protein loading control. C. Microscopic images were shown for cell viability. Note: white arrows indicate a cluster of dying cells loaded with fluorescent-labeled peptides.
(§3) To achieve a better intracellular distribution of the peptide, a cellular penetrating peptide (CPP) derived from the KDM4A protein was fused to the N-terminal of the ARil4 peptide via a short link sequence GGGS (FIG. 2A).

LAPC-4 cells = test: Cell viability / cell death by microscopic images in LAPC-4 cells; format: cell-based; settings: 10 micro-M, 24 h
Description: as §2, §3

C4-2B cells [4] = test: Flow cytometry analysis of subG1/GO cell cycle population in C4-2B cells; format: cell-based; settings: Enzalutamide-resistant C4-2B cells, 10 micro-M, 24 h, 2% charcoal-stripped FBS
Description: as §1
(§4) We further characterized the ARi14 peptide for its core sequence of action. The ARi14 peptide was chopped into two fragments, the 7-mer ARi7 peptide (EAAAYQS) and 8-mer ARi8 peptide ([…]), and their AR degradation inducing ability was compared to the original 14-mer peptide (FIG. 3). These peptides were synthesized with an N-terminal myristylation signal to facilitate cellular uptake.

C4-2B cells [5] = test: Apoptotic cell death by PARP cleavage western blot in C4-2B cells; format: cell-based; settings: N-terminal myristylated peptides
Description: as §1, §4

[6] = N-terminal myristylated peptides, 24 h

Compound: COc1ccc(/C=C/C(=O)/C=C(O)/C=C/c2ccc(OC)c(OC)c2)cc1OC [ASC-J9]
AR protein degradation in prostate cancer cells (AR protein [1]): induced AR protein degradation

AR protein levels (AR protein [2]; myristylated peptides, 48 h): largely reduced
Compound: ARi10: new analog of ARi8, myristylation sequence at the N-terminal (Myristoyl-YQSRDYYNFP)

impact on the AR protein level (AR protein [2]; [6]): no impact
Compound: EAAAYQS [ARi7, 7-mer fragment of ARi14, synthesized with an N-terminal myristylation signal]

AR protein level (AR protein [3]): no apparent effect | AR reduction (AR protein [2]; [6]): 78%
Compound: EAAAYQSRDYYNFP [ARi14, decoy peptide derived from the AR N-terminal domain, amino acids 355-368; myristylated form used in b32]
cell death response / cell viability (LAPC-4 cells): no apparent effect | cell cycle arrest at the subG1/GO phase (C4-2B cells [4]): induced cell cycle arrest

AR reduction (AR protein [2]; [6]): 92%
Compound: SRDYYNFP [ARi8, 8-mer fragment of ARi14, synthesized with an N-terminal myristylation signal]
apoptotic cell death evidenced by PARP cleavage (C4-2B cells [5]): more profound apoptotic cell death than ARi14 | cell cycle arrest at the subG1/GO phase (C4-2B cells [4]): induced cell cycle arrest
